Measured values: patent publication US9220705B2, “Method of treating colorectal cancer” (priority 2013, dated 2015)
Where “and” joins values, the source holds several entries; their conditions need not be identical. Equal entries are not always repeated. Marks after values point to notes of the source that are not given here.

Assays:
[1] = tested on: 2008/C13*, LoVo/LoVo-OXP, LoVo MDR; assay: MTT cytotoxicity, comparison over the Table 2 cell lines; assay type: cell-based, human; details: 2008 ovarian and LoVo colon sensitive cells
Protocol: (§1) After 24 h, the medium was removed and replaced with a fresh one containing the compound to be studied, at the appropriate concentration, dissolved in 0.9% sodium chloride solution just before use. Triplicate cultures were established for each treatment. After 72 h, each well was treated with […] of a 5 mg mL^−1 MTT saline solution and, after 5 h of incubation, 100 μL of a sodium dodecylsulfate (SDS) solution in 0.01 M HCl were added. After an overnight incubation, the inhibition of cell growth induced by the tested complexes was determined by measuring the absorbance of each well at 570 nm using a BioRad 680 microplate reader. Mean absorbance for each drug dose was expressed as percentage of the control and plotted vs. drug concentration. Dose-response curves were fitted and IC50 values were calculated with four parameter logistic model (4PL).
(§2) A LoVo cell line retaining a multidrug resistance phenotype was also considered (LoVo MDR). Cross-resistance profiles were evaluated by means of the resistance factor (RF), which is defined as the ratio between the IC50 value for the resistant cells and that arising from the sensitive cells (Table 2).

[2] = tested on: panel of human tumor cell lines (A431, MCF-7, A375, HCT-15, SW480, CaCo-2, DLD-1); assay: MTT cytotoxicity, comparison over the Table 1 panel; assay type: cell-based; details: average over seven cell lines of Table 1
Protocol: as §1
The cytotoxicity was evaluated by means of the MTT test for 72 h treatment with increasing concentrations of the tested compounds.

[3] = tested on: LoVo MDR multidrug resistant colon carcinoma subline; assay: MTT cytotoxicity assay, cross-resistance profile; assay type: cell-based, human
Text: (§3) Human breast (MCF-7) and colon (HCT-15, DDL1, SW480 and CaCo-2) carcinoma cell lines along with melanoma (A375) were obtained from the American Type Culture Collection (ATCC, Rockville, Md.). A431 are human cervical carcinoma cells kindly provided by Prof. F. Zunino (Molecular Pharmacology Unit, Experimental Oncology and Molecular Medicine, Istituto Nazionale dei Tumori, Milan, Italy). […] G. Marverti (Dept. of Biomedical Science, University of Modena, Italy). LoVo human colon-carcinoma cell line and its multidrug-resistant sublime (LoVo MDR) were kindly provided by Prof F. Maj one (Department of Biology of Padova University, Italy). […] Cell lines were maintained in the logarithmic phase at 37° C. in a 5% carbon dioxide atmosphere using the following culture media containing 10% fetal calf serum (Euroclone, Milan, Italy), antibiotics (50 units mL^−1 penicillin and 50 μg mL^−1 streptomycin), and 2 mM L-glutamine in: i) RPMI-1640 medium (Euroclone) for MCF-7, HCT-15, A431, DLD 1, 2008, and C13* cells; ii) F-12 HAM'S (Sigma Chemical Co.) for LoVo, LoVo MDR, and LoVo-OXP cells; iii) DMEM for A375 and SW 480 cells; and iv) MEM for CaCo-2 cells.
(§4) The growth inhibitory effect towards tumor cell lines was evaluated by means of the MTT (3-(4,5-dimethylthiazol-2-yl)-2,5-diphenyltetrazolium bromide) assay (Alley, M. C., et al., Cancer Res. 1988, 48, 589-601).
as §1, with “Briefly, depending upon the growth characteristics of the cell line, 3-8×10^3 cells well^−1, were seeded in 96-well microplates in growth medium (100 μL) and then incubated at 37° C. in a 5% carbon dioxide atmosphere. After 24” for “After 24”
as §2
In Table 2 are also reported the results obtained in a multidrug resistant (MDR) colon carcinoma subline, LoVo MDR, in which the resistance to doxorubicin, a drug belonging to the MDR spectrum, is associated with an overexpression of multi-specific drug transporters, such as the 170 kDa P-glycoprotein (P-gp) (Wersinger, C., et al., Amino Acids 2000, 19, 667-685). It is well known that acquired MDR, whereby cells become refractory to multiple drugs, poses most important challenge to the success of anticancer chemotherapy.

[4] = tested on: C13* cisplatin resistant ovarian cancer cells; assay: MTT cytotoxicity assay, cross-resistance profile; assay type: cell-based, human
Text: as §3, §4
as §1, with “Briefly, depending upon the growth characteristics of the cell line, 3-8×10^3 cells well^−1, were seeded in 96-well microplates in growth medium (100 μL) and then incubated at 37° C. in a 5% carbon dioxide atmosphere. After 24” for “After 24”
as §2

[5] = tested on: LoVo-OXP oxaliplatin resistant colon cancer cells; assay: MTT cytotoxicity assay, cross-resistance profile; assay type: cell-based, human
Text: as §3, §4
as §1, with “Briefly, depending upon the growth characteristics of the cell line, 3-8×10^3 cells well^−1, were seeded in 96-well microplates in growth medium (100 μL) and then incubated at 37° C. in a 5% carbon dioxide atmosphere. After 24” for “After 24”
as §2

[6] = tested on: 2008 ovarian cancer cells; assay: MTT cytotoxicity assay, cross-resistance profile; assay type: cell-based, human; details: 72 h
Text: as §3, §4
as §1, with “Briefly, depending upon the growth characteristics of the cell line, 3-8×10^3 cells well^−1, were seeded in 96-well microplates in growth medium (100 μL) and then incubated at 37° C. in a 5% carbon dioxide atmosphere. After 24” for “After 24”
as §2

LoVo colon cancer cells = assay: MTT cytotoxicity assay, cross-resistance profile; assay type: cell-based, human; details: 72 h
Text: Human breast (MCF-7) and colon (HCT-15, DDL1, SW480 and CaCo-2) carcinoma cell lines along with melanoma (A375) were obtained from the American Type Culture Collection (ATCC, Rockville, Md.). A431 are human cervical carcinoma cells kindly provided by Prof. F. Zunino (Molecular Pharmacology Unit, Experimental Oncology and Molecular Medicine, Istituto Nazionale dei Tumori, Milan, Italy). […] G. Marverti (Dept. of Biomedical Science, University of Modena, Italy). LoVo human colon-carcinoma cell line and its multidrug-resistant sublime (LoVo MDR) were kindly provided by Prof F. Maj one (Department of Biology of Padova University, Italy).
as §4
as §1, with “Briefly, depending upon the growth characteristics of the cell line, 3-8×10^3 cells well^−1, were seeded in 96-well microplates in growth medium (100 μL) and then incubated at 37° C. in a 5% carbon dioxide atmosphere. After 24” for “After 24”
as §2

[7] = tested on: Lewis lung carcinoma (LLC); assay: In vivo anticancer activity toward Lewis lung carcinoma; set-up: species or system C57BL mice; details: daily dose i.p. 1.5 mg kg^−1 from day 9; day 15
Protocol: All studies involving animal testing were carried out in accordance with the ethical guidelines for animal research adopted by the University of Padua, acknowledging the Italian regulation and the European Directive 86/609/EEC as to animal welfare and protection and the related codes of practice. The mice were purchased from Charles River, Italy, and housed in steel cages under controlled environmental conditions (constant temperature, humidity, and 12 h dark/light cycle) and alimented with commercial standard feed and tap water ad libitum. Animals were observed daily, and body weight and food intake recorded. The Lewis lung carcinoma (LLC) cell line was purchased from ECACC, UK. The LLC cell line was maintained in D-MEM (Euroclone) supplemented with 10% heat-inactivated FBS (Euroclone), 10 mM L-glutamine, 100 U mL^−1 penicillin, and 100 μg mL^−1 streptomycin in a 5% CO2 air incubator at 37° C.
The Lewis lung carcinoma (LLC) was implanted i.m. as a 2×10^6 cell inoculum into the right hind leg of 8-week old male and female C57BL mice (24±3 g body weight). […] At day 15, animals were sacrificed, the legs were amputated at the proximal end of the femur, and the inhibition of tumor growth was determined according to the difference in weight of the tumor-bearing leg and the healthy leg of the animals expressed as % referred to the control animals. Body weight was measured every two days and was taken as a parameter for systemic toxicity.
All the values are the means±S.D. of not less than three measurements. Multiple comparisons were made by Tukey-Kramer test (**p<0.01; *p or °p<0.05).
The in vivo antitumor activity of compound 1 was evaluated in a model of solid tumor, the syngeneic murine Lewis lung carcinoma (LLC). […] For the assessment of the adverse side effects, changes in body weights of tumor-bearing mice were monitored daily (FIG. 3).

HCT-15 = assay: MTT cytotoxicity assay, 72 h; assay type: cell-based, human; details: HCT-15, colon
Text: as §3, §4
as §1, with “Briefly, depending upon the growth characteristics of the cell line, 3-8×10^3 cells well^−1, were seeded in 96-well microplates in growth medium (100 μL) and then incubated at 37° C. in a 5% carbon dioxide atmosphere. After 24” for “After 24”
(§5) Compound 1 was prepared for the first time almost twenty years ago however, until now, it had been tested (both in vitro and in vivo) only in a limited number of tumor cell lines (Hoeschele, J. D., et al., J. Med. Chem. 1994, 37, 2630-2636 and Shamsuddin, S., et al., J. Inorg. Biochem. 1996, 61, 291-301). The Pt(II) and Pt(IV) complexes containing isomeric forms of diaminocyclohexane, [PtCl2(cis-1,4-DACHA](1), [PtCl2(1R,2R-DACH)] (2), [Pt(OXA)(cis-1,4-DACH)] (3), cis,trans,cis-[Pt^IVCl2(OH)2(cis-1,4-DACH)] (4), cis,trans,cis-[Pt^IVCl2(DCA)2(cis-1,4-DACH)] (5), [Pt(CBDCA)(cis-1,4-DACH)] (6), cis,trans,cis-[Pt^IV(OXA)(OH)2(cis-1,4-DACH)] (7), and cis,trans,cis-[Pt^IV(OXA)(DCA)2(cis-1,4-DACH)] (8) were evaluated for their cytotoxic activity towards a panel of human tumor cell lines including cervical (A431), breast (MCF-7), cancers along with a melanoma (A375) and 4 different colon cancer cell lines corresponding to different stages of the disease progression (HCT-15, SW480, CaCo-2, DLD-1). The cytotoxicity was evaluated by means of the MTT test for 72 h treatment with increasing concentrations of the tested compounds.

SW480 = assay: MTT cytotoxicity assay, 72 h; assay type: cell-based, human; details: SW480, colon
Text: as §3, §4
as §1, with “Briefly, depending upon the growth characteristics of the cell line, 3-8×10^3 cells well^−1, were seeded in 96-well microplates in growth medium (100 μL) and then incubated at 37° C. in a 5% carbon dioxide atmosphere. After 24” for “After 24”
as §5

DLD-1 = assay: MTT cytotoxicity assay, 72 h; assay type: cell-based, human; details: DLD-1, colon
Text: as §3, §4
as §1, with “Briefly, depending upon the growth characteristics of the cell line, 3-8×10^3 cells well^−1, were seeded in 96-well microplates in growth medium (100 μL) and then incubated at 37° C. in a 5% carbon dioxide atmosphere. After 24” for “After 24”
as §5

MCF-7 = assay: MTT cytotoxicity assay, 72 h; assay type: cell-based, human; details: MCF-7, breast
Text: as §3, §4
as §1, with “Briefly, depending upon the growth characteristics of the cell line, 3-8×10^3 cells well^−1, were seeded in 96-well microplates in growth medium (100 μL) and then incubated at 37° C. in a 5% carbon dioxide atmosphere. After 24” for “After 24”
as §5

A431 = assay: MTT cytotoxicity assay, 72 h; assay type: cell-based, human; details: A431, cervix
Text: as §3, §4
as §1, with “Briefly, depending upon the growth characteristics of the cell line, 3-8×10^3 cells well^−1, were seeded in 96-well microplates in growth medium (100 μL) and then incubated at 37° C. in a 5% carbon dioxide atmosphere. After 24” for “After 24”
as §5

A375 = assay: MTT cytotoxicity assay, 72 h; assay type: cell-based, human; details: A375, skin
Text: as §3, §4
as §1, with “Briefly, depending upon the growth characteristics of the cell line, 3-8×10^3 cells well^−1, were seeded in 96-well microplates in growth medium (100 μL) and then incubated at 37° C. in a 5% carbon dioxide atmosphere. After 24” for “After 24”
as §5

SMILES | cytotoxic activity towards sensitive lines compared with reference drugs [1] | average cytotoxic activity compared with reference drugs [2] | R.F. (resistance factor) ([3]; IC50 LoVo-MDR / IC50 LoVo) | IC50 ([3]; LoVo-MDR, 72 h, MTT) | IC50 ([4]; C13*, 72 h, MTT) | R.F. (resistance factor) ([4]; IC50 C13* / IC50 2008, cross-resistance with cisplatin) | R.F. (resistance factor) ([5]; IC50 LoVo-OXP / IC50 LoVo, cross-resistance with oxaliplatin) | IC50 ([5]; LoVo-OXP, 72 h, MTT) | IC50 [6] | IC50 (LoVo colon cancer cells) | Average tumor weight (mean ± SD, g) [7] | Inhibition of tumor growth (%) [7] | IC50 (HCT-15) | IC50 (SW480) | IC50 (DLD-1) | IC50 (MCF-7) | IC50 (A431) | IC50 (A375)
O=C([O][Pt]1([Cl])([Cl])([O]C(=O)C(Cl)Cl)[NH][C@H]2CC[C@H](CC2)[NH]1)C(Cl)Cl [Compound 5, (OC-6-33)-dichloro(cis-1,4-cyclohexanediamine-N,N′)bisdichloroacetateplatinum] | better than cisplatin and similar to oxaliplatin | rather similar to oxaliplatin |  |  |  |  |  |  |  |  |  |  |  |  |  |  |  | 
O=C1[O][Pt]2([NH]C3CCC(CC3)[NH]2)[O]C(=O)C12CCC2 [Compound 6, [SP-4-2-(cis)]-(1,4-cyclohexanediamine-N,N′)[cyclobutane-1,1-dicarboxylate-O,O′]platinum] | less effective than oxaliplatin and cisplatin | lower than oxaliplatin and cisplatin |  |  |  |  |  |  |  |  |  |  |  |  |  |  |  | 
N.N.[Cl][Pt][Cl] [cisplatin, cis-diamminedichloroplatinum(II), reference compound] |  |  | 1.1 | 7.53 ± 0.98 µM | 23.7 ± 2.42 µM | 10.5 | 1.7 | 13.1 ± 2.47 µM | 2.26 ± 1.06 µM | 7.63 ± 1.53 µM | 0.199 ± 0.10** g | 75% and 74.66% | 15.5 ± 2.48 µM | 7.67 ± 1.34 µM | 8.01 ± 2.22 µM | 8.37 ± 2.96 µM | 1.96 ± 0.84 µM | 2.06 ± 1.01 µM
